Measurements: article PMC10811744 (Molecular cancer therapeutics, 2023)
Where “and” joins values, the source holds several entries; their conditions need not be identical. Equal entries are not always repeated. Where two headings read alike, the source gives them in different places.

Experiments:
[1] = test system: GSC-040815 orthotopic tumor; experiment: Orthotopic xenograft model with patient-derived GSC-040815 cells; assay type: in vivo, SCID mice; details: 50 mg/kg/i.p.
[2] = mouse, in vivo, ip, 20 mg/kg
[3] = test system: U251 and U87 cells; experiment: Colony formation; assay type: cell-based, human; details: 10 μM
[4] = test system: orthotopic U251 tumor; experiment: Orthotopic U251 xenograft model; assay type: in vivo, mice; details: 50 mg/kg/i.p.
[5] = test system: U251 and U87 GBM model cells; experiment: Matrigel invasion chamber assay; assay type: cell-based, human; details: 10μM, 22h
[6] = test system: normal human astrocytes; experiment: MTT cell viability assay, normal human astrocytes; assay type: cell-based
[7] = test system: GSC-031417, GSC-012015, and GSC-040815 cells; experiment: Neurosphere formation assay; assay type: cell-based, human; details: 20 μM, three GSC model cells
[8] = test system: U251 GBM model cells expressing ERβ; experiment: MTT cell viability assay, U251 GBM model cells expressing ERβ; assay type: cell-based, human; details: read-out: growth inhibitory activity IC50
[9] = test system: U251- ERβ KO cells; experiment: Invasion and colony formation of U251-ERβ KO cells; assay type: cell-based, human
[10] = test system: SOX2, and OCT4; experiment: Western blotting of stemness markers in GSCs; assay type: cell-based, human
[11] = test system: U251 GBM cells; experiment: MTT cell viability assay, WT U251 GBM cells; assay type: cell-based, human
[12] = molecular target: T1, ERβ (Homo sapiens, UniProt Q92731); experiment: ERE-Luc reporter gene assay in HEK293T cells expressing ERβ; assay type: cell-based; details: 24 hours
[13] = test system: GBM cells; experiment: GBM cell viability; assay type: cell-based, human; details: read-out: GBM cell viability IC50
[14] = test system: ERβ target genes; experiment: RT-qPCR of ERβ target genes in patient derived GSCs; assay type: cell-based, human; details: 10 μM, 72h, GSC-040815, GSC-031417, RT-qPCR
[15] = test system: U251 subcutaneous xenograft; details: 20 mg/kg/day i.p.
[16] = test system: primary GSCs; experiment: CellTiter Glo cell viability assay, patient derived GSCs; assay type: cell-based, human; details: multiple primary GSCs
[17] = test system: GBM cells; experiment: Annexin V/PI apoptosis assay; assay type: cell-based, human; details: 20 μM
[18] = molecular target: T1, ERβ; experiment: ERE-Luc reporter gene assay in U251 GBM cells expressing ERβ; assay type: cell-based; details: 24 h
[19] = molecular target: ERα (Homo sapiens, UniProt P03372); experiment: ERE-Luc reporter gene assay in HEK293T cells expressing ERα; assay type: cell-based; details: 24 hours
[20] = molecular target: T1, ERβ; experiment: PolarScreen ER competitive binding assay; details: based on EC50 values from polar screen ERα and ERβ assays
[21] = test system: U251-ERβ-KO cells; experiment: MTT cell viability assay, U251-ERβ-KO cells; assay type: cell-based, human
[22] = test system: GBM cells; details: read-out: IC50 in GBM cells, no reference given; cited from earlier work
[23] = no reference given; cited from earlier work

T1 sequence (Q92731 whole entry): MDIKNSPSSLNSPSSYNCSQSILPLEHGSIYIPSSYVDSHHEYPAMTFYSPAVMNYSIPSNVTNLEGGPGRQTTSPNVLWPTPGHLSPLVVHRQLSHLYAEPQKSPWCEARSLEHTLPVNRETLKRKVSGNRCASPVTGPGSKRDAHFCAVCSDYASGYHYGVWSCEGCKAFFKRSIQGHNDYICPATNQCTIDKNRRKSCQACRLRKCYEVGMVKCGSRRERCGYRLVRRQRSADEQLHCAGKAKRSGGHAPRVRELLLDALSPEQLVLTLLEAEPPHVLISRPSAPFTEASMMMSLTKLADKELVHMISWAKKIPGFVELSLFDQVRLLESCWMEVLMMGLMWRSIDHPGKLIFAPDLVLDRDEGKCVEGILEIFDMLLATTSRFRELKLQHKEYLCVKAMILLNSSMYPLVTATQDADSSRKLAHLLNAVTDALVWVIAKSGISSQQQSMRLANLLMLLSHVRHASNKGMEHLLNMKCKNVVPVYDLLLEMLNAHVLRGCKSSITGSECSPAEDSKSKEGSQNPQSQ
Sequence of ERα (P03372 whole entry): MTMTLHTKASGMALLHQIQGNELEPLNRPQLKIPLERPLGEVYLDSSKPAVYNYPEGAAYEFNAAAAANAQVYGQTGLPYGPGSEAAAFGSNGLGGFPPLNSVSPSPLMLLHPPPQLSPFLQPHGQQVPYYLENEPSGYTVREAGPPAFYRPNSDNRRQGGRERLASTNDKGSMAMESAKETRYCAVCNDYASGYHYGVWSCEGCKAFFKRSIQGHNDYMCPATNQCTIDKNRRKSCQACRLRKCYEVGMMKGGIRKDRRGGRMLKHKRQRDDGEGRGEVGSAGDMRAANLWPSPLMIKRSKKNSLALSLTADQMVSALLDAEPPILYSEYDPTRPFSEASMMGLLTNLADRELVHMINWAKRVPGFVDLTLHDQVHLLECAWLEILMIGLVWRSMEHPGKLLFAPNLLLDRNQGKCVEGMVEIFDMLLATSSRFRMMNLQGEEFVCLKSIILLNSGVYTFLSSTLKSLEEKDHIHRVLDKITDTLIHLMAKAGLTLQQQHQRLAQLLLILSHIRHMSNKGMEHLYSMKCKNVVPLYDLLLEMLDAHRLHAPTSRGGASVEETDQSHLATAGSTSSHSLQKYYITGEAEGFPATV

CCN(CC)CCCC(C)NC(=O)c1ccc2c(c1)C(=O)c1ccccc1C2=O (stereo not shown) [CIDD-0149897]
Ki-67 positive cells, IHC [1]: significantly decreased | survival of GSC tumor-bearing mice [1]: significantly enhanced the survival | mean half-life, terminal elimination phase [2]: 9.59 h | time to maximum blood concentration [2]: less than 15 min | long-term colony formation [3]: significantly reduced | survival of orthotopic U251 tumor bearing mice [4]: significantly increased the survival | Ki-67 positive proliferating cells, IHC ([4]; tumor sections): fewer proliferating cells | GBM cells invasion [5]: significantly reduced | effect on viability of normal human astrocytes [6]: little to no effect | effect on viability of normal human astrocytes ([6]; listed as CIDD-014987): no/limited effect | neurosphere growth [7]: significantly reduced | IC50 [8]: 7.4 µM and ~7.4 µM | invasion and colony formation of U251- ERβ KO cells [9]: no significant effect | expression of stemness markers [10]: reduced the expression of stemness markers | effect on U251 cell viability [11]: significantly decreased | ERβ reporter activity [12]: enhanced ERβ reporter activity in a dose dependent manner | IC50 [13]: 7 to 15 µM | expression of ERβ target genes [14]: activation of ERβ target genes | ERβ target genes in tumor tissues, RT-qPCR [15]: significant increase | tumor progression compared to vehicle ([15]; 5 days/week): significantly reduced | tumor weights compared to vehicle ([15]; after 35 days of treatment): significantly smaller | Ki-67 positive proliferating cells, IHC ([15]; tumors): fewer proliferating cells | cytotoxic activity against primary GSCs [16]: potent cytotoxic activity | apoptosis of GBM cells [17]: significantly promoted apoptosis | ERβ reporter activity [18]: enhanced ERβ reporter activity in a dose dependent manner in U251 GBM cells | ERα reporter activation [19]: no activation of ERα reporter | selectivity for ERβ over ERα [20]: 40 fold | effect on viability of ERβ-KO cells [21]: little to no effect | effect on viability of ERβ-KO cells ([21]; listed as CIDD-014987): no/limited effect

Oc1ccc([C@H]2COc3cc(O)ccc3C2)cc1 [S-equol]
IC50 [22]: 100 to 200 µM | brain penetration [23]: lacks brain penetration
